{
  "source": "patent US7776826B2",
  "about": "“Method for fostering bone formation and preservation” (Unigene Laboratories, Inc., priority 2004, dated 2010)",
  "assay_type_in_all_cases": "in vivo, rat",
  "key": {"Male Sprague-Dawley rats [1]": {"tested_on": "Male Sprague-Dawley rats", "experiment": "High resolution radiograms of left and right femurs, Groups A-J", "conditions": "left femur with bmx, 21 days", "description": "FIG. 3 (a-e) present high resolution radiograms of, respectively, the left (ablated) and right (non-ablated) femurs of some of the rats described with regard to FIGS. 1 and 2 above. (See discussion below of Tables 1 and 2) The radiographs were taken three weeks (i.e., 21 days) following commencement of treatment. The rats were treated as follows: (a) control (i.e., no surgery); (b) sham (i.e., surgery without marrow ablation); (c) mechanical bone marrow ablation (bmx)+phosphate buffer saline (PBS) administration daily for 21 days; (d) bmx followed by parathyroid hormone (PTH[1-34]-NH2) administered daily for 21 days; and (e) bmx followed by parathyroid hormone (PTH[1-34]-NH2) administered daily for 7 days and then salmon calcitonin given daily from days 7-21. A marking of bmx with regard to a right (non-ablated) femur means that\nFIG. 3 presents a set of high resolution radiograms of the entire left and right femurs from rats taken from some of the groups A-J described above. In each of the views shown, the treatment modality is indicated in the lower left corner of the radiogram. The following abbreviations are used: Control=no surgery; Sham=surgery without any bone marrow ablation; BMX=bone marrow ablation; PBS=phosphate buffer saline; PTH=parathyroid hormone (PTH[1-34]-NH2); and CT= salmon calcitonin. […]"}, "Male Sprague-Dawley rats [2]": {"tested_on": "Male Sprague-Dawley rats", "experiment": "Serum osteocalcin concentration at day 21, Groups K-R", "from_the_text": "FIG. 12 provides a measurement of the serum osteocalcin concentration (in ng/ml) in the blood of the rats in Groups K-R when the rats were sacrificed 21 days after commencement of treatment. The meaning of the abbreviated terms is the same as in FIGS. 10 and 11. […] [*=p value<0.05, while **=p value<0.01];\nFIG. 12 is a bar graph which sets forth the osteocalcin levels determined, at the time of sacrifice, in the blood serum of the rats which were the subject of the analyses illustrated in FIGS. 10 and 11. As indicated above, it is well known that osteocalcin is a biochemical marker indicative of new bone growth.\nThe table additionally includes the standard deviations for the values obtained for each analysis, which standard deviations are also included in FIG. 12."}, "Male Sprague-Dawley rats [3]": {"tested_on": "Male Sprague-Dawley rats", "experiment": "pQCT analysis of left and right femoral shafts at day 21, Groups K-R", "from_the_text": "FIG. 10 (a-b) presents high resolution radiograms of the left and right femurs, respectively, from an additional series of experiments on additional groups of male Sprague-Dawley rats (6 rats per group) aged 9 weeks which were sacrificed and tested after 21 days (3 weeks). The various groups were subjected to the following treatment modalities: Group K—control day 0; Group L—control day 21; Group M—bone marrow ablation (bmx) day 0; Group N—sham day 21; Group O— bmx+phosphate buffer saline (PBS) daily for 21 days; Group P—bmx+PTH[1-34]-NH2 daily for 21 days; Group Q—bmx+ parathyroid hormone related peptide (PTHRP) daily for 21 days; and Group R—bmx+rat α-calcitonin gene related peptide (CGRP) daily for 21 days;\nFIG. 11 (a-d) are graphical representations of the results of Peripheral Quantitative Computerized Tomography (PQCT) analyses of, respectively, the left (ablated) and right (non-ablated) femoral shafts of the rats from Groups K-R (see description of FIG. 10). FIGS. 11(a) and 11(b) illustrate the trabecular bone density observed in, respectively the left and right femoral shafts at day 21; whereas, FIGS. 11(c) and 11(d) illustrate the total bone density of, respectively, the left and right femoral shafts at the same interval. The meanings of the abbreviations used in FIGS. 11(a-d) are identical to those described above with regard to FIG. 10. […] [+=p value<0.01 vs. sham; *=p value<0.01 vs. bmx+PTH; **=p value<0.01 vs. bmx+PTH; and #=p value<0.05 vs. PBS];\nAn additional series of experiments was thereafter carried out with additional groups of rats (K-R) in order to (1) measure the effect of additional bone anabolic agents, i.e., other than parathyroid hormone (PTH[1-34]-NH2) and calcitonin, as well as to compare the effect(s) achieved with such parathyroid hormone with those obtained with the use of alternate anabolic agents, including parathyroid hormone related peptide (PTHrP) and calcitonin gene related peptide (CGRP). As in the case of the analyses discussed above with regard to FIGS. 3-9, in the animals tested only the left femur underwent the bone marrow ablation (bmx) procedure, i.e., there was no ablation of the right femur. Thus, as noted above, any views of the right femur in the figures described below indicating bone marrow ablation (bmx) as a treatment modality should be taken to mean that such treatment was applied to the corresponding left femur. Further, as was additionally the case above, the samples described below with regard to FIGS. 10-13 were taken from the femur shafts, rather than the corresponding distal epiphysis as in the case of FIGS. 1 and 2. The figures discussed below depict the results of end-point studies wherein the measurements were taken only at the 21 day end-point.\nFIG. 11 (a-d) graphically illustrates, by means of a bar graph, the improvements in trabecular bone density and, to some extent, total bone density, in the left femoral shaft of rats subjected to the treatment modalities described above with regard to FIG. 10 (a-b); that is, control day 0; bmx day 0; control day 21; sham day 21; bmx+PBS on day 21; bmx+PTH on day 21; bmx+PTHrP on day 21; and bmx+CGRP on day 21. Again, this is attributable that (only) the left femur was subjected to the bmx treatment, and thus was the only femur wherein the effects of such bmx treatment overlapped with that of the systemic treatment with the bone anabolic agent. […] In contrast to the values obtained for the left femur, no significant amount of bone was formed in the right femur, notwithstanding whether it is trabecular bone density or total bone density which is being measured. This lack of new bone is, furthermore, attributable to the fact that the right femur had not been subjected to the bone marrow ablation (bmx) treatment."}, "[4]": {"conditions": "ablated femur, day 21, agent daily for 21 days, Groups K-R"}, "[5]": {"conditions": "non-ablated femur, day 21, agent daily for 21 days, Groups K-R"}},
  "data": [
    {"substance": "PTH[1-34]-NH2", "values": [
      {"measurement": "bone growth on radiograms, in words", "setting": "Male Sprague-Dawley rats [1]", "value": "greatest bone growth"},
      {"measurement": "osteocalcin level, in words", "setting": "Male Sprague-Dawley rats [2]; bmx + agent daily for 21 days", "value": "highest osteocalcin level"},
      {"measurement": "Osteocalcin mean", "setting": "Male Sprague-Dawley rats [2]; bmx rats, day 21, agent daily for 21 days, Groups K-R", "value": 141.5, "unit": "ng/mL"},
      {"measurement": "Left femoral shaft Total density mean", "setting": "Male Sprague-Dawley rats [3]; [4]", "value": 1100.2, "unit": "mg/mL"},
      {"measurement": "Left femoral shaft Trabecular density mean", "setting": "Male Sprague-Dawley rats [3]; [4]", "value": 540.7, "unit": "mg/mL"},
      {"measurement": "trabecular bone density of left femoral shaft, in words", "setting": "Male Sprague-Dawley rats [3]; bmx, day 21", "value": "significantly improved"},
      {"measurement": "Right femoral shaft Total density mean", "setting": "Male Sprague-Dawley rats [3]; [5]", "value": 899.5, "unit": "mg/mL"},
      {"measurement": "Right femoral shaft Trabecular density mean", "setting": "Male Sprague-Dawley rats [3]; [5]", "value": 128.3, "unit": "mg/mL"}
    ]}
  ]
}
